Results on 15 compounds are retold here after publication PMC6152724, “Secondary Sulfonamides as Effective Lactoperoxidase Inhibitors” (Molecules : A Journal of Synthetic Chemistry and Natural …, 2017).

The assay addresses T1, LPO purified from bovine milk (Bos taurus, UniProt P80025).
T1 construct: from tissue; host or cells: fresh bovine milk
In words: LPO inhibition assay (ABTS oxidation by H2O2, absorbance at 412 nm; Lineweaver–Burk plots). The conditions noted are these: for IC50: from activity (%)-[inhibitor] regression graphs, ABTS substrate; for Inhibition Type: with respect to ABTS substrate, from Lineweaver–Burk plots. It counts as biochemical. As for the experimental part:
LPO activities were determined by the procedure of Shindler and Bardsley with slight modification. This method is based on the oxidation of chromogenic substrate 2,2′-azino-bis(3-ethylbenzothiazoline-6-sulfonic acid) (ABTS) by hydrogen peroxide (H2O2), which results in a product which had absorbance at 412 nm.
The effects of secondary sulfonamide derivatives (4a–8h) on LPO purified from fresh bovine milk by affinity chromatography technique were previously determined. In our study, LPO activity was measured in the presence of different concentrations of secondary sulfanilamide derivatives (4a–8h). A control sample without secondary sulfonamide was taken as 100%. An activity (%)-[Secondary sulfonamide] plot was drawn. For the determination of the inhibition constant (Ki) values, three different secondary sulfonamide derivative (4a–8h) concentrations were used. Additionally, ABTS was used as a substrate at five different concentrations. Lineweaver–Burk plots (1/V-1/[ABTS]) were obtained for secondary sulfonamide; the Ki and the inhibition type were calculated from these plots. The data obtained were analysed by t-test and the results are given as Means ± SD.

Setting [1] is: LPO purified from bovine milk, Lineweaver–Burk plots, three inhibitor and five ABTS concentrations, Means ± SD.

One may read the Ki as the equilibrium dissociation constant of an inhibitor or competing ligand from its target. Read a low Ki as a stronger hold on the target. A word on the IC50: it is the concentration that gives 50% inhibition. As for `Cc1noc(NS(=O)(=O)c2ccc(NC(=O)c3ccc(O)cc3)cc2)c1C` [7e, N-(sulfisoxazole)-p-hydroxybenzamide], the “Inhibition Type” value was “Non-competitive”. Moreover, the Ki under setting [1] worked out at 15100 ± 3900 nM. The same compound returned a concentration for half-maximal inhibition (IC50) (LPO purified from bovine milk) of 10.8 µM.

Turning to `Cc1ccnc(NS(=O)(=O)c2ccc(N)cc2)n1` [4g, Sulfamerazine, reference compound], the “Inhibition Type” value was “Non-competitive”. Under setting [1], this compound gave a Ki of 20500 ± 2140 nM. Moreover, inhibition (LPO purified from bovine milk) was half-maximal at 18.7 µM (IC50).

Turning to `Cc1ccnc(NS(=O)(=O)c2ccc(NC(=O)c3cc(O)c(O)c(O)c3)cc2)n1` [8g, N-(sulfamerazine)-3,4,5-trihydroxybenzamide], the “Inhibition Type” value is on record as “Non-competitive”. In addition, the affinity under setting [1] corresponds to a Ki of 3870 ± 430 nM. The compound further showed an IC50 (LPO purified from bovine milk) of 1.48 µM.

Turning to `CC(=O)Oc1ccc(C(=O)Nc2ccc(S(=O)(=O)Nc3nccs3)cc2)cc1` [5a, N-(sulfathiazole)-p-acetoxybenzamide], the “Inhibition Type” value is “Non-competitive”. This compound returned a Ki under setting [1] of 56100 ± 23600 nM. The compound further returned an IC50 (LPO purified from bovine milk) of 99 µM.

Regarding `CC(=O)Oc1ccc(C(=O)Nc2ccc(S(=O)(=O)Nc3nccc(C)n3)cc2)cc1` [5g, N-(sulfamerazine)-p-acetoxybenzamide], the “Inhibition Type” value was “Competitive”. The same compound displayed a Ki under setting [1] of 13400 ± 6190 nM. This compound yielded an IC50 (LPO purified from bovine milk) of 3.94 µM.

Take `CC(=O)Oc1ccc(C(=O)Nc2ccc(S(=O)(=O)Nc3ncccn3)cc2)cc1` [5b, N-(sulfadiazine)-p-acetoxybenzamide]: the “Inhibition Type” value is recorded as “Non-competitive”. The Ki under setting [1] came to 26 ± 4 nM. Moreover, the midpoint of inhibition (LPO purified from bovine milk), the IC50, lay at 0.015 µM. Under “bovine milk LPO, values restated in text in nM”, this compound had a Ki of 260 nM.

On to `CC(=O)Oc1cc(C(=O)Nc2ccc(S(=O)(=O)Nc3ncccn3)cc2)cc(OC(C)=O)c1OC(C)=O` [6b, N-(sulfadiazine)-3,4,5-triacetoxybenzamide], for which the “Inhibition Type” value is “Competitive”. Under setting [1], this compound returned a Ki of 2900 ± 1130 nM. For the same compound, the half-inhibitory concentration (IC50) (LPO purified from bovine milk) is 13.9 µM.

On to `CC(=O)Oc1cc(C(=O)Nc2ccc(S(=O)(=O)Nc3ccccn3)cc2)cc(OC(C)=O)c1OC(C)=O` [6d, N-(sulfapyridine)-3,4,5-triacetoxybenzamide], for which the “Inhibition Type” value is listed as “Non-competitive”. This compound also had a Ki under setting [1] of 1390 ± 150 nM. The IC50 (LPO purified from bovine milk) turned out to be 1.56 µM.

For the compound `Nc1ccc(S(=O)(=O)Nc2ncccn2)cc1` [4b, Sulfadiazine, reference compound], the “Inhibition Type” value is recorded as “Non-competitive”. In addition, under setting [1], affinity was put at a Ki of 90700 ± 2520 nM. Also, it took 92.2 µM to reach half-maximal inhibition (LPO purified from bovine milk) (IC50).

As to `CC(=O)Oc1ccc(C(=O)Nc2ccc(S(=O)(=O)Nc3nnc(C)s3)cc2)cc1` [5f, N-(sulfamethizole)-p-acetoxybenzamide], the “Inhibition Type” value is recorded as “Non-competitive”. Under setting [1], this compound returned a Ki of 324 ± 115 nM. The compound also showed an IC50 (LPO purified from bovine milk) of 0.238 µM.

Regarding `Nc1ccc(S(N)(=O)=O)cc1` [4h, Sulfanilamide, reference compound], the “Inhibition Type” value is “Competitive”. Moreover, the Ki under setting [1] stood at 35700 ± 4880 nM. The IC50 (LPO purified from bovine milk) is 8.48 µM.

For the compound `Cc1cc(C)nc(NS(=O)(=O)c2ccc(N)cc2)n1` [4c, Sulfamethazine, reference compound], the “Inhibition Type” value is “Non-competitive”. Besides, the Ki under setting [1] was 198000 ± 24500 nM. This compound also came in with an IC50 (LPO purified from bovine milk) of 346 µM.

On to `NS(=O)(=O)c1ccc(NC(=O)c2ccc(O)cc2)cc1` [7h, N-(sulfanilamide)-p-hydroxybenzamide], for which the “Inhibition Type” value is “Non-competitive”. The Ki under setting [1] is 217 ± 99 nM. Further, the concentration for half-maximal inhibition (IC50) (LPO purified from bovine milk) worked out at 0.285 µM.

Turning to `CC(=O)Oc1cc(C(=O)Nc2ccc(S(=O)(=O)Nc3nccs3)cc2)cc(OC(C)=O)c1OC(C)=O` [6a, N-(sulfathiazole)-3,4,5-triacetoxybenzamide], the “Inhibition Type” value is on record as “Non-competitive”. Under setting [1], this compound displayed a Ki of 1.1 nM. Where the note is “LPO purified from bovine milk”, the IC50 was found to be 0.000656 µM.

As for `Cc1noc(NS(=O)(=O)c2ccc(N)cc2)c1C` [4e, Sulfisoxazole, reference compound], the “Inhibition Type” value is “Non-competitive”. Under setting [1], this compound returned a Ki of 183000 ± 34100 nM. The same compound displayed an IC50 (LPO purified from bovine milk) of 222 µM.
